Experimental data from PMC8698959, “A Combination of Structural, Genetic, Phenotypic and Enzymatic Analyses Reveals the Importance of a Predicted Fucosyltransferase to Protein O-Glycosylation in the Bacteroidetes” (Biomolecules, 2021).

Legend:
[1] = biological target: T1, rBF4306 (FucT) (Bacteroides fragilis, UniProt Q5L7H9); test: TLC and ESI-MS of fucosylated product; format: biochemical; details: 5 mM MgCl2, 5 mM MnCl2, pH 7.4, 37 °C, overnight
T1 construct: gene BF9343_4192; tag kept; partly degraded
T1 sequence (Q5L7H9 entry or part of it): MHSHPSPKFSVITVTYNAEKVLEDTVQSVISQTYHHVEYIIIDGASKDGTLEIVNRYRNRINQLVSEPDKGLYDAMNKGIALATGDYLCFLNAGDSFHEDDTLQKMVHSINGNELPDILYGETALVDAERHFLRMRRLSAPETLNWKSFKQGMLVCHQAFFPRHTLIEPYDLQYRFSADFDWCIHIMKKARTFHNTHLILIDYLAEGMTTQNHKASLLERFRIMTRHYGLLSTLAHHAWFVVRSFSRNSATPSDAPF
Text: (§1) All three enzymes transferred L-Fuc to pNP-α-Gal

[2] = biological target: T2, rPhep_4048 (FucT) (Pedobacter heparinus, UniProt C6XWF0); test: TLC and ESI-MS of fucosylated product; format: biochemical; details: donor; acceptor pNP-α-D-Gal 8 mM, 5 mM MgCl2, 5 mM MnCl2, pH 7.4, 37 °C, overnight
T2 construct: gene Phep_4048; tag kept; partly degraded
T2 sequence (C6XWF0 1-252): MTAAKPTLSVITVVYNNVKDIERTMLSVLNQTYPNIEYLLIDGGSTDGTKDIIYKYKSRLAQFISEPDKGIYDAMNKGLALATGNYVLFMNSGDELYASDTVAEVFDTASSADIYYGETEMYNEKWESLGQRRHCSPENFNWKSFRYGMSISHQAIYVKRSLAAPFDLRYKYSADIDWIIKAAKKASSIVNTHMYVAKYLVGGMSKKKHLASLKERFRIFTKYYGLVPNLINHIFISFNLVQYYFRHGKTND
Text: as §1

Row | Compound | TLC and ESI-MS of fucosylated product ([1]; 2 mM GDP-L-Fuc, 8 mM acceptor) | TLC and ESI-MS of fucosylated product ([1]; donor, acceptor pNP-α-D-Glc 8 mM) | TLC and ESI-MS of fucosylated product [2]
1 | O=[N+]([O-])c1ccc(O[C@H]2O[C@H](CO)[C@@H](O)[C@H](O)[C@H]2O)cc1 [pNP-α-D-Glc] | rBF4306 demonstrated very low activity with all substrates; pNP-α-Glc was the best substrate | – | –
2 | C[C@@H]1O[C@H](OP(=O)(O)OP(=O)(O)OC[C@H]2O[C@@H](n3cnc4c(=O)[nH]c(N)nc43)[C@H](O)[C@@H]2O)[C@@H](O)[C@H](O)[C@@H]1O [GDP-L-Fuc] | – | with GDP-L-Fuc serving as the Fuc donor. All three enzymes transferred L-Fuc to pNP-α-Gal | with GDP-L-Fuc serving as the Fuc donor. All three enzymes transferred L-Fuc to pNP-α-Gal
